Article PMC10599620, “Structure of a diatom photosystem II supercomplex containing a member of Lhcx family and dimeric FCPII” (Science Advances, 2023)
Each block holds one molecule with its values, some of them ahead of it.

What was measured:
Tp-Lhcf11 = target: T1, Tp-Lhcf11 (Thalassiosira pseudonana, UniProt B8BVI1); test: cryo-EM structure of native supercomplex, local map […] A; assay type: binding; details: site 305
T1 construct: native; Lhcf6-Lhcf11 heterodimer within purified PSII-FCPII supercomplex; with Fucoxanthin chlorophyll a/c light-harvesting protein Lhcf6
T1 sequence (B8BVI1 31-196): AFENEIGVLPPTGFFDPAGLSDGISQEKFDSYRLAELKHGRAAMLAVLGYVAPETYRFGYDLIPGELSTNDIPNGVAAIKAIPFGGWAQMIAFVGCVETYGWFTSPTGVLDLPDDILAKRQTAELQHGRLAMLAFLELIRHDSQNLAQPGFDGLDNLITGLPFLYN

Tp-Lhcf7 homodimer = target: T2, Tp-Lhcf7 homodimer (Thalassiosira pseudonana, UniProt B8BX93); test: cryo-EM structure of native supercomplex, […] A; assay type: binding; details: sites 301 and 302
T2 construct: native FCPII homodimer (Lhcf7_1, Lhcf7_2) within purified PSII-FCPII supercomplex
T2 sequence (B8BX93 31-194 limits assumed): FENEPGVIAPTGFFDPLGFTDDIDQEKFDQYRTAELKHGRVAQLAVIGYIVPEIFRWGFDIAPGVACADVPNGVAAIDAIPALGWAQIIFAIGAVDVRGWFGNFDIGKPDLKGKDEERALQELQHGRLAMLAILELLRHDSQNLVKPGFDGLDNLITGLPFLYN

Tp-Lhcf7 = target: T3, Tp-Lhcf7 (Thalassiosira pseudonana); test: cryo-EM structure; native PSII-FCPII supercomplex co-purified from T. pseudonana (cells grown under low light), in 50 mM Mes-NaOH pH 6.5, 10 mM NaCl, 5 mM CaCl2, 0.03% alpha-DDM, 2 mg Chl/ml; overall map 2.68 A, local map of the peripheral FCPII 3.19 A; details: both partners purified
T3 chain: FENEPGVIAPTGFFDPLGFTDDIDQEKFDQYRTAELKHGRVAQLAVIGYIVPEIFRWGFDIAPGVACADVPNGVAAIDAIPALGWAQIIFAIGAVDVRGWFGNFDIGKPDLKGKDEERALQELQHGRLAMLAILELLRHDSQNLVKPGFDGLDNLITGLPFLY

Molecule: CC(=O)O[C@H]1CC(C)(C)C(=C=C/C(C)=C/C=C/C(C)=C/C=C/C=C(C)/C=C/C=C(\C)C(=O)C[C@@]23O[C@]2(C)C[C@@H](O)CC3(C)C)[C@](C)(O)C1 [Fx]
cryo-EM structure of native supercomplex, local map 3.19 A (Tp-Lhcf11): two changes of pigment species at Chl c403 and Fx305 sites | cryo-EM structure of native supercomplex, 2.68 A (Tp-Lhcf7 homodimer): There are two Fxs, Fx301 and Fx302, in Tp-Lhcf7

stoichiometry N (Tp-Lhcf7): 2
B1: Tp-Lhcf7 (natural protein)
chain: T3 chain
modifications: binds 12-13 Chl a, 2 fucoxanthins, 2 diadinoxanthins; homodimer in the supercomplex; limits are the residues modelled in 8IWH (Table S4) / binds 12-13 Chl a, 2 fucoxanthins, 2 diadinoxanthins …
